Measured values: patent publication US20260226029A1, “1-(1-Oxo-1,2-Dihydrophthalazin-6-yl)Cycloalkyl-1-Carboxamide Derivatives as MTA-Cooperative Inhibitors of PRMT5” (BeOne Medicines I GmbH, priority 2023, published 2026)

Columns and labels:
HCT116-mock-RNA-KO = test: Compounds cell killing in HCT116 isogenic pair (CellTiter-Glo, 6 days), mock-KO (MTAP wildtype) cells; format: cell-based; conditions: Homo sapiens, HCT-116, 144 h, Cell Titer-Glo, 0-10 μM
Text: (§1) HCT116 cell line (ATCC, CCL-247) was isolated from the colon of an adult with colon cancer. It has a mutation in codon 13 of the ras proto-oncogene and can be used as a positive control for PCR assays of mutation in this codon. HCT116-MTAP-KO was knocked-out-MTAP-gene based HCT116, and a single clone was passed for this assay. HCT116-mock-RNA-KO was knocked-out-mock-gene based HCT116 with MTAP wildtype genotype. The base medium for HCT116 isogenic pair is RPMI 1640, HEPES (Gibco, 22400105). To make the complete growth medium, add the following components to the base medium: fetal bovine serum to a final concentration of 10% (Gibco, 10099-141C). The cell line was grown in a humidified 5% CO2 atmosphere at 37° C. and regularly tested for the presence of mycoplasma with MycoAlert™ PLUS Mycoplasma Detection Kit (Lonza, LT07-710).
(§2) • Seed HCT116-mock-RNA-KO (4E2/well) or HCT116-MTAP-KO (4E2/well) cells into a 96-well plate (Greiner: 655090), 100 µL/well. • Incubate at 37° C., 5% CO2, overnight. • Add 50 μL fresh growth-medium containing serial dilution of compounds for a final compound concentration of 0-10 μM to each well. • Incubate at 37° C., 5% CO2, 6 days. • The cell viability detected by Cell Titer-Glo (Promega, G7573). Add 70 μL of CellTiter-Glo® reagent in each well. • Incubate at room temperature for 10 minutes to stabilize luminescent signal. • Analyze with Microplate Reader (TECAN, SPARK) and fit IC50 using Prism® 9.

HCT116-MTAP-KO = test: Compounds cell killing in HCT116 isogenic pair (CellTiter-Glo, 6 days), MTAP-KO cells; format: cell-based; conditions: Homo sapiens, HCT-116, 144 h, Cell Titer-Glo, 0-10 μM
Text: as §1, §2

| Structure (SMILES) | IC50 (HCT116-mock-RNA-KO) | IC50 (HCT116-MTAP-KO) |
| --- | --- | --- |
| NCc1n[nH]c(=O)c2ccc(C3(C(=O)N(Cc4ncc(Br)c5ccccc45)C4CCCc5cccnc54)CC3)cc12 (stereo not drawn) [Example 15, 1-(4-(aminomethyl)-1-oxo-1,2-dihydrophthalazin-6-yl)-N-((4-bromoisoquinolin-1-yl)methyl)-N-(5,6,7,8-tetrahydroquinolin-8-yl)cyclopropane-1-carboxamide] | 5080 nM | 942 nM |
| NCc1n[nH]c(=O)c2ccc(C3(C(=O)N(Cc4ccc(-c5c(Cl)cccc5Cl)cn4)C4CCCc5cccnc54)CC3)cc12 (stereo not drawn) [Example 3, 1-(4-(aminomethyl)-1-oxo-1,2-dihydrophthalazin-6-yl)-N-((5-(2,6-dichlorophenyl)pyridin-2-yl)methyl)-N-(5,6,7,8-tetrahydroquinolin-8-yl)cyclopropane-1-carboxamide] | 3870 nM | 57 nM |
| NCc1n[nH]c(=O)c2ccc(C3(C(=O)N(Cc4ccc(C(F)(F)F)cn4)C4CCCc5cccnc54)CC3)cc12 (stereo not drawn) [Example 1, 1-(4-(aminomethyl)-1-oxo-1,2-dihydrophthalazin-6-yl)-N-(5,6,7,8-tetrahydroquinolin-8-yl)-N-((5-(trifluoromethyl)pyridin-2-yl)methyl)cyclopropane-1-carboxamide] | > 10000 nM | 98 nM |
| NCc1n[nH]c(=O)c2ccc(C3(C(=O)N(Cc4ccc(-c5c(F)cccc5F)cn4)[C@@H]4CCCc5cccnc54)CC3)cc12 [Example 19A, (R)-1-(4-(aminomethyl)-1-oxo-1,2-dihydrophthalazin-6-yl)-N-((5-(2,6-difluorophenyl)pyridin-2-yl)methyl)-N-(5,6,7,8-tetrahydroquinolin-8-yl)cyclopropane-1-carboxamide] | 2230 nM | 17 nM |
| NCc1n[nH]c(=O)c2ccc(C3(C(=O)N(Cc4ccc(C(F)(F)F)cn4)C4CCCc5cccnc54)CCC3)cc12 (stereo not drawn) [Example 35, 1-(4-(aminomethyl)-1-oxo-1,2-dihydrophthalazin-6-yl)-N-(5,6,7,8-tetrahydroquinolin-8-yl)-N-((5-(trifluoromethyl)pyridin-2-yl)methyl)cyclobutane-1-carboxamide] | > 10000 nM | 924 nM |
| NCc1n[nH]c(=O)c2ccc(C3(C(=O)N(Cc4ccc(C(F)(F)F)cn4)[C@H]4CCCc5cccnc54)CC3)cc12 [Example 2B, (S)-1-(4-(aminomethyl)-1-oxo-1,2-dihydrophthalazin-6-yl)-N-(5,6,7,8-tetrahydroquinolin-8-yl)-N-((5-(trifluoromethyl)pyridin-2-yl)methyl)cyclopropane-1-carboxamide] | > 10000 nM | > 10000 nM |
| COCC(COC)N(Cc1ccc(-c2c(F)cccc2F)cn1)C(=O)C1(c2ccc3c(=O)[nH]nc(CN)c3c2)CC1 [Example 30, 1-(4-(aminomethyl)-1-oxo-1,2-dihydrophthalazin-6-yl)-N-((5-(2,6-difluorophenyl)pyridin-2-yl)methyl)-N-(1,3-dimethoxypropan-2-yl)cyclopropane-1-carboxamide] | > 10000 nM | 254 nM |
| CC(C)(C)c1ccc(CN(C(=O)C2(c3ccc4c(=O)[nH]nc(CN)c4c3)CC2)C2CCCc3cccnc32)nc1 (stereo not drawn) [Example 14, 1-(4-(aminomethyl)-1-oxo-1,2-dihydrophthalazin-6-yl)-N-((5-(tert-butyl)pyridin-2-yl)methyl)-N-(5,6,7,8-tetrahydroquinolin-8-yl)cyclopropane-1-carboxamide] | > 10000 nM | 378 nM |
| NCc1n[nH]c(=O)c2ccc(C3(C(=O)N(Cc4ccc(-c5c(F)cccc5F)cn4)C4CCCc5cccnc54)CC3)cc12 (stereo not drawn) [Example 18, 1-(4-(aminomethyl)-1-oxo-1,2-dihydrophthalazin-6-yl)-N-((5-(2,6-difluorophenyl)pyridin-2-yl)methyl)-N-(5,6,7,8-tetrahydroquinolin-8-yl)cyclopropane-1-carboxamide] | 2220 nM | 35 nM |
| CC(c1ncccn1)N(Cc1ccc(C(F)(F)F)cn1)C(=O)C1(c2ccc3c(=O)[nH]nc(CN)c3c2)CC1 (stereo not drawn) [Example 29, 1-(4-(aminomethyl)-1-oxo-1,2-dihydrophthalazin-6-yl)-N-(1-(pyrimidin-2-yl)ethyl)-N-((5-(trifluoromethyl)pyridin-2-yl)methyl)cyclopropane-1-carboxamide] | > 10000 nM | 1440 nM |
| CC1(C)COc2nc(CN(C(=O)C3(c4ccc5c(=O)[nH]nc(CN)c5c4)CC3)C3CCCc4cccnc43)ccc21 (stereo not drawn) [Example 5, 1-(4-(aminomethyl)-1-oxo-1,2-dihydrophthalazin-6-yl)-N-((3,3-dimethyl-2,3-dihydrofuro[2,3-b]pyridin-6-yl)methyl)-N-(5,6,7,8-tetrahydroquinolin-8-yl)cyclopropane-1-carboxamide] | > 10000 nM | 707 nM |
| NCc1n[nH]c(=O)c2ccc(C3(C(=O)N(Cc4ccc(-c5c(F)cccc5Cl)cn4)C4CCCc5cccnc54)CC3)cc12 (stereo not drawn) [Example 26, 1-(4-(aminomethyl)-1-oxo-1,2-dihydrophthalazin-6-yl)-N-((5-(2-chloro-6-fluorophenyl)pyridin-2-yl)methyl)-N-(5,6,7,8-tetrahydroquinolin-8-yl)cyclopropane-1-carboxamide] | 2780 nM | 77 nM |
| NCc1n[nH]c(=O)c2ccc(C3(C(=O)N(Cc4ccc(-c5c(F)cccc5F)cn4)C4CCc5cccnc54)CC3)cc12 (stereo not drawn) [Example 33, 1-(4-(aminomethyl)-1-oxo-1,2-dihydrophthalazin-6-yl)-N-((5-(2,6-difluorophenyl)pyridin-2-yl)methyl)-N-(6,7-dihydro-5H-cyclopenta[b]pyridin-7-yl)cyclopropane-1-carboxamide] | 9800 nM | 150 nM |
| NCc1n[nH]c(=O)c2ccc(C3(C(=O)N(Cc4ccc(C(F)(F)F)cn4)Cc4c(F)cccc4Cl)CC3)cc12 [Example 9, 1-(4-(aminomethyl)-1-oxo-1,2-dihydrophthalazin-6-yl)-N-(2-chloro-6-fluorobenzyl)-N-((5-(trifluoromethyl)pyridin-2-yl)methyl)cyclopropane-1-carboxamide] | 4670 nM | 222 nM |
| N#Cc1cccc(Cl)c1-c1ccc(CN(C(=O)C2(c3ccc4c(=O)[nH]nc(CN)c4c3)CC2)C2CCCc3cccnc32)nc1 (stereo not drawn) [Example 13, 1-(4-(aminomethyl)-1-oxo-1,2-dihydrophthalazin-6-yl)-N-((5-(2-chloro-6-cyanophenyl)pyridin-2-yl)methyl)-N-(5,6,7,8-tetrahydroquinolin-8-yl)cyclopropane-1-carboxamide] | 3950 nM | 62 nM |
| NCc1n[nH]c(=O)c2ccc(C3(C(=O)N(Cc4ccc(-c5c(F)cccc5F)cn4)C4CCC4)CC3)cc12 [Example 25, 1-(4-(aminomethyl)-1-oxo-1,2-dihydrophthalazin-6-yl)-N-cyclobutyl-N-((5-(2,6-difluorophenyl)pyridin-2-yl)methyl)cyclopropane-1-carboxamide] | > 10000 nM | 3690 nM |
| CC(C)(O)c1ccc(CN(C(=O)C2(c3ccc4c(=O)[nH]nc(CN)c4c3)CC2)C2CCCc3cccnc32)nc1 (stereo not drawn) [Example 6, 1-(4-(aminomethyl)-1-oxo-1,2-dihydrophthalazin-6-yl)-N-((5-(2-hydroxypropan-2-yl)pyridin-2-yl)methyl)-N-(5,6,7,8-tetrahydroquinolin-8-yl)cyclopropane-1-carboxamide] | > 10000 nM | 2560 nM |
| NCc1n[nH]c(=O)c2ccc(C3(C(=O)N(Cc4ccc(-c5ccccc5)cn4)[C@H]4CCCc5cccnc54)CC3)cc12 [Example 11B, (S)-1-(4-(aminomethyl)-1-oxo-1,2-dihydrophthalazin-6-yl)-N-((5-phenylpyridin-2-yl)methyl)-N-(5,6,7,8-tetrahydroquinolin-8-yl)cyclopropane-1-carboxamide] | > 10000 nM | 2090 nM |
| Cc1nc(CN(C(=O)C2(c3ccc4c(=O)[nH]nc(CN)c4c3)CC2)C2CCCc3cccnc32)ccc1-c1ccccc1 (stereo not drawn) [Example 8, 1-(4-(aminomethyl)-1-oxo-1,2-dihydrophthalazin-6-yl)-N-((6-methyl-5-phenylpyridin-2-yl)methyl)-N-(5,6,7,8-tetrahydroquinolin-8-yl)cyclopropane-1-carboxamide] | 5250 nM | 255 nM |
| NCc1n[nH]c(=O)c2ccc(C3(C(=O)N(Cc4ccc(S(F)(F)(F)(F)F)cc4)[C@@H]4CCCc5cccnc54)CC3)cc12 [Example 31, (R)-1-(4-(aminomethyl)-1-oxo-1,2-dihydrophthalazin-6-yl)-N-(4-(pentafluoro-λ^6-sulfanyl)benzyl)-N-(5,6,7,8-tetrahydroquinolin-8-yl)cyclopropane-1-carboxamide] | 3150 nM | 18 nM |
| NCc1n[nH]c(=O)c2ccc(C3(C(=O)N(Cc4ccc5c(Br)cccc5n4)C4CCCc5cccnc54)CC3)cc12 (stereo not drawn) [Example 27, 1-(4-(aminomethyl)-1-oxo-1,2-dihydrophthalazin-6-yl)-N-((5-bromoquinolin-2-yl)methyl)-N-(5,6,7,8-tetrahydroquinolin-8-yl)cyclopropane-1-carboxamide] | 7290 nM | 415 nM |
